One assay deals with BRD4-1 (Homo sapiens (Human), UniProt O60885). The assay is described as follows: Bromodomain and Extraterminal Domain (BET) Binding Assay. The settings on record: Table 3; read-out: BRD4-1 IC50. As for the experimental part:
(§1) The bromodomain binding assays were performed by Reaction Biology Corp., Malvern, Pa., USA (www.reactionbiology.com). The BET binding assays were conducted in 384 well microplates in assay buffer (50 mM HEPES-HCl, pH 7.5, 100 mM NaCl, 1 mg/ml BSA, 0.05% CHAPS, and 0.5% DMSO) with compounds added as DMSO stocks at a single concentration or with 10-point dose response titrations. BET protein or assay buffer were delivered to the appropriate wells of the microplate. Test compound was then delivered by acoustic technology via a Labcyte Echo550 liquid handler. The microplate was centrifuged for 5 min and pre-incubated for 30 min at RT with gentle shaking. The ligand (histone H4 peptide (1-21) K5/8/12/16Ac-biotin) was delivered and the microplate was again centrifuged for 5 min and allowed to incubate for 30 min at RT with gentle shaking. Donor beads were then added in the absence of light and the microplate was centrifuged and gently shaken. After 5 min, acceptor beads were added in the absence of light and the microplate was centrifuged and gently shakenin the dark for 60 min. The microplate was read using a Perkin Elmer EnSpire Alpha plate reader (λEx/λEm=680/520-620 nm). Percent inhibition was calculated relative to positive and negative controls on a per plate basis. For titration experiments, IC50 values were determined by fitting the percent inhibition versus compound concentration.

The target in the next assay is BRD4-2 (Homo sapiens (Human), UniProt O60885). Described as above. The settings on record: Table 3; read-out: BRD4-2 IC50. As for the experimental part: as §1
In assay [1] the test system is MV-4-11 human acute myeloid leukemia cell line. Description: Second cell viability assay in MV-4-11 (Cell Titer-Glo). The format is cell-based. The settings on record: MV4-11, Cell Titer-Glo, 72 hrs, read-out: Cell Viability IC50 in MV4-11 cells. As for the experimental part:
The effects of test compounds were studied in a second cell viability assay in the MV-4-11 human acute myeloid leukemia cell line. The cells were harvested during the logarithmic growth period and counted. Cells were seeded at a count of 15000 cells per well/100 μl. After seeding, cells were incubated at 37° C., 5% CO2 for 1 hr. Cells were treated with test compounds at 8 concentrations within a desired concentration range (e.g. 5 nM-[…]) for generation of dose response curves by preparing serial dilutions of the test compound in DMSO which were further diluted with culture medium and then added to each well. The plate was further incubated for another 72 hrs in a humidified incubator at 37° C. and 5% CO2. The assay was terminated by addition of Cell Titer-Glo reagent (Promega, Madison, Wis.) at ¼ the volume of total medium per well. Contents were mixed, the plate was incubated for 10 min at room temperature and luminescence was measured. Cell viability data were plotted using GraphPad Prism (GraphPad Software, Inc., San Diego, Calif.). In addition, a nonlinear regression model with a sigmoidal dose response and variable slope within GraphPad Prism was used to calculate the IC50 value of individual test compounds.

Another assay relates to c-Myc. Description: Measurement of c-Myc suppression after washoff (Western blot). The format is cell-based, human. The settings on record: MV4-11, 2 μM for 2 hr, washed, further 6 hr. On the procedure: MV4-11 cells were incubated with 2 μM of JQ1, mivebresib or a test compound for 2 hr. The cells were then washed twice with fresh culture medium and further cultured for another 6 hr. Cells were extracted with SDS sample buffers and then subjected to Western blot analysis to measure c-Myc. Compounds 2, 3, 12, 17, 409, 411 and 412 were tested in these assays.
A general note: A western blot detects proteins with antibodies after separation by electrophoresis.

The subject of assay [2] is IEC-6 rat intestinal epithelial cell line. The assay is described as follows: IEC-6 cell viability, Protocol B (toxicity to non-cancerous cells). The assay is classed as cell-based. The settings on record: IEC-6, 4000 cells per well, 48 hrs. On the procedure:
The effects of test compounds were also studied in the IEC-6 rat intestinal epithelial cell line to assess potential toxicity to non-cancerous cells. The cells were harvested during the logarithmic growth period and counted. In Protocol A, cells were seeded at a count of 3000 cells per well/100 μl in a 96-well plate. After seeding, cells were incubated at 37° C., 5% CO2 for 24 hr. Cells were treated with test compounds at 8 concentrations within a desired concentration range (e.g. 5 nM-10 μM) for generation of dose response curves by preparing serial dilutions of the test compound in DMSO which were further diluted with culture medium and then added to each well. The plate was further incubated for another 96 hrs in humidified incubator at 37° C. and 5% CO2. The assay was terminated by addition of resazurin (# R7017, Sigma). The plate was incubated for 4 hr at 37° C., 5% CO2 and fluorescence was measured using excitation and emission wavelengths of 535 and 590 nm, respectively. Cell viability data were plotted using GraphPad Prism (GraphPad Software, Inc., San Diego, Calif.). In addition, a nonlinear regression model with a sigmoidal dose response and variable slope within GraphPad Prism was used to calculate the IC50 value of individual test compounds. Protocol B was the same as Protocol A except that cells were seeded at a count of 4000 cells per well/100 μl in a 96-well plate, and the incubation with test compound was for 48 hrs instead of 96 hrs.

For the next assay, the system named is 22Rv1 cells. Description: 22Rv1 cell proliferation assay with wash-off or mock wash-off. The format is cell-based, human. As for the experimental part: A 22Rv1 cell proliferation assay was used to assess durability of test compound effects after transient exposure of test compound to cells. 22Rv1 cells were seeded at 3000 cells per well/100 μl in a 96-well plate and incubated with test compounds at specified dilutions for 2 hr at 37° C. and 5% CO2. Following the incubation, test compound was washed off and replacement culture medium without test compound was added. Wash-off was performed by three PBS washes. The cells were incubated for an additional 96 hr at 37° C. and 5% CO2. In parallel, a mock wash-off was performed with cells that were treated identically except that the replacement culture medium contained test compound. The plate was incubated for 4 hr at 37° C., 5% CO2 and fluorescence was measured using excitation and emission wavelengths of 535 and 590 nm, respectively. Cell viability data were plotted using GraphPad Prism (GraphPad Software, Inc., San Diego, Calif.). In addition, a nonlinear regression model with a sigmoidal dose response and variable slope within GraphPad Prism was used to calculate the IC50 value of individual test compounds.

Like-named read-outs stand apart in the source and are kept apart here. Where only a bound is given, the exact number is not on record here.

Here are results for 13 compounds from US11192900B2, “Substituted 1,6-dihydropyridinones and 1,2-dihydroisoquinolinones as bet inhibitors” (NUVATION BIO INC., priority 2018, dated 2021).

`C=CC(=O)Nc1ccc(Nc2c(C)cccc2C)c(-c2cn(C)c(=O)c3cc(C(=O)NCC)sc23)c1` [Compound 585, 7-(5-acrylamido-2-(2,6-dimethylphenylamino)phenyl)-N-ethyl-5-methyl-4-oxo-4,5-dihydrothieno[3,2-c]pyridine-2-carboxamide]: the IC50 at BRD4-1 was determined as 5070 nM; at BRD4-2, 43 nM; in assay [1] (Homo sapiens) it was 221 nM. The “c-Myc suppression activity after washoff” value in the assay on c-Myc is given as “less durable activity”.

As for `C=CC(=O)Nc1ccc(Oc2c(C)cccc2C)c(-c2cc(NC)c(=O)n(C)c2)c1` [Compound 411, N-(4-(2,6-dimethylphenoxy)-3-(1-methyl-5-(methylamino)-6-oxo-1,6-dihydropyridin-3-yl)phenyl)acrylamide], the IC50 on BRD4-1 was determined as 347 nM; on BRD4-2 it was 10 nM; in assay [1] (Homo sapiens), 74 nM. For the same compound, the “c-Myc suppression activity after washoff” value in the assay with c-Myc is reported as “less durable or no suppression activity”.

On to `C=CC(=O)Nc1ccc(Oc2c(C)cccc2C)c(-c2cn(C)c(=O)c3cc(C(=O)NCC)sc23)c1` [Compound 412, 7-(5-acrylamido-2-(2,6-dimethylphenoxy)phenyl)-N-ethyl-5-methyl-4-oxo-4,5-dihydrothieno[3,2-c]pyridine-2-carboxamide], for which the IC50 worked out at 1740 nM on BRD4-1, 4 nM at BRD4-2 and 25 nM in assay [1] (Homo sapiens). Moreover, the “c-Myc suppression activity after washoff” value in the assay on c-Myc was “less durable or no suppression activity”.

Consider `C=CC(=O)Nc1ccc(Oc2ccc(F)cc2F)c(-c2cn(C)c(=O)cc2OC)c1` [Compound 407, N-(4-(2,4-difluorophenoxy)-3-(4-methoxy-1-methyl-6-oxo-1,6-dihydropyridin-3-yl)phenyl)acrylamide], for which the IC50 is 183 nM on BRD4-1, 11 nM at BRD4-2, 51 nM in assay [1] (Homo sapiens) and 693 nM in assay [2] (Rattus norvegicus). For the same compound, the “c-Myc suppression activity after washoff” value in the assay with c-Myc was “less durable activity”.

Take `C=CC(=O)Nc1ccc(Oc2c(C)cccc2C)c(-c2cn(C)c(=O)cc2OC)c1` [Compound 584, N-(4-(2,6-dimethylphenoxy)-3-(4-methoxy-1-methyl-6-oxo-1,6-dihydropyridin-3-yl)phenyl)acrylamide]: the IC50 on BRD4-1 was found to be 226 nM; on BRD4-2, 1 nM; in assay [1] (Homo sapiens), 33 nM. Further, the “c-Myc suppression activity after washoff” value with c-Myc is recorded as “less durable activity”.

Regarding `C=CC(=O)Nc1ccc(Oc2c(C)cc(F)cc2C)c(-c2cn(C)c(=O)c3cc(C(=O)NCC)sc23)c1` [Compound 588, 7-(5-acrylamido-2-(4-fluoro-2,6-dimethylphenoxy)phenyl)-N-ethyl-5-methyl-4-oxo-4,5-dihydrothieno[3,2-c]pyridine-2-carboxamide], the concentration for half-maximal inhibition (IC50) at BRD4-1 was determined as 2850 nM; on BRD4-2 it was 6 nM; in assay [1] (Homo sapiens) it was 82 nM. Besides, the “c-Myc suppression activity after washoff” value in the assay on c-Myc is “less durable activity”.

On to `Cc1sc2c(c1C)C(c1ccc(Cl)cc1)=N[C@@H](CC(=O)OC(C)(C)C)c1nnc(C)n1-2` [JQ1, reference compound], for which the IC50 is > 10000 nM with 22Rv1 cells (22Rv1, 2 hr exposure, three PBS washes, additional 96 hr without compound, read-out: Wash-off IC50) and 71 nM in the assay on 22Rv1 cells (22Rv1, 2 hr, replacement medium with test compound, additional 96 hr, read-out: Mock wash-off IC50).

On to `C=CC(=O)Nc1ccc(Oc2ccc(OC)cc2)c(-c2cn(C)c(=O)c3ccccc23)c1` [Compound 409, N-(4-(4-methoxyphenoxy)-3-(2-methyl-1-oxo-1,2-dihydroisoquinolin-4-yl)phenyl)acrylamide], for which the results for the IC50 (at BRD4-1; at BRD4-2; in assay [1] (Homo sapiens)) were 479 nM, 75 nM and 253 nM, respectively. In addition, the “c-Myc suppression activity after washoff” value with c-Myc was “rebound in c-Myc expression”.

Take `CCS(=O)(=O)Nc1ccc(Oc2ccc(F)cc2F)c(-n2cc(Cl)c(=O)c3ccccc32)c1` [Compound 661, N-(3-(3-chloro-4-oxoquinolin-1(4H)-yl)-4-(2,4-difluorophenoxy)phenyl)ethanesulfonamide]: the IC50 stood at 20 nM at BRD4-1, 5 nM on BRD4-2, 71 nM in assay [1] (Homo sapiens) and 273 nM in assay [2] (Rattus norvegicus).

Turning to `C#CC(=O)Nc1ccc(Oc2ccc(F)cc2F)c(-c2cc(NC)c(=O)n(C)c2)c1` [Compound 2, N-(4-(2,4-difluorophenoxy)-3-(1-methyl-5-(methylamino)-6-oxo-1,6-dihydropyridin-3-yl)phenyl)propiolamide], the IC50 at BRD4-1 was 52 nM; on BRD4-2 it was 117 nM. In addition, the “c-Myc suppression activity after washoff” value in the assay with c-Myc is recorded as “less durable or no suppression activity”.

Take `CCS(=O)(=O)Nc1ccc(Oc2ccc(F)cc2F)c(-n2ccc(=O)c3ccccc32)c1` [Compound 709, N-(4-(2,4-difluorophenoxy)-3-(4-oxoquinolin-1(4H)-yl)phenyl)ethanesulfonamide]: the IC50 on BRD4-1 was found to be 1210 nM; at BRD4-2, 93 nM; in assay [1], 979 nM; in assay [2] it was 2900 nM.

With `C=CS(=O)(=O)Nc1ccc(Oc2ccc(F)cc2F)c(-c2cc(N)c(=O)n(C)c2)c1` [Compound 17, N-(3-(5-amino-1-methyl-6-oxo-1,6-dihydropyridin-3-yl)-4-(2,4-difluorophenoxy)phenyl)ethenesulfonamide], the IC50 amounted to 119 nM on BRD4-2 and 84 nM in assay [1] (Homo sapiens). For the same compound, the “c-Myc suppression activity after washoff” value in the assay on c-Myc is listed as “sustained c-Myc suppression activity”.

Consider `C=CS(=O)(=O)Nc1ccc(Oc2ccc(F)cc2F)c(-c2cn(C)c(=O)cc2OC)c1` [Compound 406, N-(4-(2,4-difluorophenoxy)-3-(4-methoxy-1-methyl-6-oxo-1,6-dihydropyridin-3-yl)phenyl)ethenesulfonamide], for which the IC50 on BRD4-1 was 22 nM; at BRD4-2, 3 nM; in assay [1] (Homo sapiens), 114 nM; in the assay on 22Rv1 cells (Homo sapiens, 22Rv1, 2 hr exposure, three PBS washes, additional 96 hr without compound, read-out: Wash-off IC50), 415 nM; with 22Rv1 cells (Homo sapiens, 22Rv1, 2 hr, replacement medium with test compound, additional 96 hr, read-out: Mock wash-off IC50) it was 255 nM.

A word on the IC50: it is the midpoint of a concentration-inhibition curve.
